Here are results for 17 molecules from PMC7034129, “C-2 phenyl replacements to obtain potent quinoline-based Staphylococcus aureus NorA inhibitors” (Journal of Enzyme Inhibition and Medicinal Chemistry, 2020).

For data set [1], the system named is SA-1199B. Description: Membrane potential (polarisation) assays, BacLight kit, DiOC2(3). In kind it is cell-based, Staphylococcus aureus. The settings on record: 30 min. The procedure:
Membrane potential assays were carried out by measuring the effect of 1 and 37a on the membrane potential using the BacLight Bacterial Membrane Potential Kit (Molecular Probes, Life Technologies) according to the manufacturer’s instructions. Briefly, SA-1199B was grown in MHB at 37 °C until reaching an OD600 of 0.6. Bacterial cells were then washed in PBS and diluted to 1 × 10^6 CFU/mL with filtered PBS (filter 0.22 µm) in flow cytometry tubes. Ten microliters of 3 mM 3,3-diethyloxacarbocyanine iodide (DiOC2(3) in DMSO) was added to each tube (final concentration 30 µM) and mixed. Then, 1 or 37a from a stock solution in DMSO (10 mg/mL) was added to reach final concentrations of 1, 5, and 10 µg/mL. As positive control, 10 µL of 500 µM carbonyl cyanide m-chlorophenylhydrazone (CCCP, final concentration 5 µM) was used to eradicate the proton gradient by eliminating the membrane potential. The samples were analysed after 30 min by measuring the fluorescence using a cytometer Attune NxT (ThermoFisher Scientific) with a laser emitting at 488 nm and collecting in the green and red channels. The red to green fluorescence ratio was determined and normalised against the emission from the DiOC2(3) blank tube having 1 ml of the bacterial suspension and a final concentration of DiOC2(3) of 30 µM. The results are presented as the percentage of depolarised membranes compared with the drug-free control.
Since efflux pumps need a proton gradient along the bacterial membrane, its modification/disruption can lead to an efflux inhibition. However, this effect cannot be related to a specific EPI activity; on the contrary, it relies on a non-specific interruption of the energy source (protons) that efflux pumps use to extrude their substrates by an antiport mechanism. A typical example of a compound inhibiting efflux pumps activity by this non-specific mechanism is represented by carbonyl cyanide m-chlorophenyl hydrazone (CCCP). […] Membrane polarisation was assessed by cytofluorimeter analysis using the fluorescent probe 3,3-diethyloxacarbocyanine iodide (DiOC2(3)) as its distribution is proton gradient-sensitive.

Data set [2] deals with S. aureus SA-1199B. The class given is cell-based, Staphylococcus aureus. The settings on record: for compound concentration reducing the CPX MIC by 4-fold: chequerboard with CPX; for synergistic effect with CPX: compound concentration below 25 µg/mL. The procedure: (§1) MICs assays were performed using broth microdilution method in 96 wells-microtiter plates, following the CLSI guidelines.
Chequerboard assays and time-kill curves were performed as previously described.

Data set [3] has as its system human leukemic monocyte cell line (THP-1). Description: Cell viability assay (ATP bioluminescence). To be noted: ratio between CC50 (THP-1) and minimum EPI concentration able to reduce by 4-fold CPX MIC. The procedure:
THP-1 cells were grown in RPMI 1640 supplemented with 10% heat-inactivated foetal calf serum, 10,000 units of penicillin, and 10 µg of streptomycin/mL overnight to confluence. […] Cell viability was then evaluated using an ATP bioluminescence kit (Via Light kit; Cambrex). Results are expressed as 50% cytotoxic concentration (CC50). The CC50 was defined as the concentration required to reduce the cell number by 50% compared to that for the untreated controls. Each concentration was tested in triplicate.

For data set [4] the test system is unchanged. Details: method as in PMID 30067360. The settings on record: THP-1 cells; cited from earlier work.
In data set [5] the test system is SA-1199B. Details: method as in PMID 30067360. To be noted: as previously reported; cited from earlier work.
Details of data set [6]: method as in PMID 30067360. The settings on record: in silico and in vitro, mouse liver microsomes 2 h; cited from earlier work.
The test system of data set [7] is S. aureus strain SA-1199B (norA+/GrlA mutation). Description: Synergistic assays: compounds at 25 µg/mL with scalar concentrations of CPX. In kind it is cell-based, Staphylococcus aureus. The settings on record: compound at 25 µg/mL. The procedure: as §1
(data not shown). […] Worthy of note, among the five active compounds, three were thiophene derivatives (35b, 36b and 37a) displaying their activity regardless of the position of the sulphur atom on the thiophene ring.

Where two headings read alike, the source gives them in different places. Marks after values point to notes of the source that are not given here.

Molecule `CCN(CC)CCOc1cc(-c2cccs2)nc2ccccc12` had a melting point of 84 to 86 °C.
`CCN(CC)CCOc1cc(-c2ccsc2)nc2ccccc12` returned a melting point of 66 to 67 °C.
The same measure, in the same setting: with `Clc1ccc(-c2cc(OCCN3CCCCC3)c3ccccc3n2)s1` the figure was 99 to 101 °C.
Regarding `CCCOc1ccc(-c2cc(OCCN(CC)CC)c3ccccc3n2)cc1` [Compound 1, reference compound], the depolarised bacterial membrane entry in data set [1] (1 µg/mL) and in data set [1] (5 µg/mL) was “retained a significant depolarising effect” each time. Also, the “depolarised S. aureus membrane” value in data set [1] (10 µg/mL) is on record as over 50%.
`CCCOc1ccc(-c2cc(OCCN3CCCCC3)c3cc(OC)ccc3n2)cc1` [Compound 2]: in data set [2] (compound at 0.39 µg/mL), the “CPX MIC reduction” value came to 2 fold. Moreover, the “SI, selectivity index” value in data set [3] is over 128. Further, the CC50 in data set [4] is on record as >100^b µg/mL. In data set [5], the depolarised bacterial membrane result is “about 20%”. For the same molecule, the “metabolic stability” value in data set [6] is reported as “good metabolic stability”.
`CCCOc1ccc(-c2cc(OCCN(CC)CC)c3ccccc3n2)nc1.Cl` [Compound 30a, N,N-diethyl-2-{[2–(5-propoxypyridin-2-yl)quinolin-4-yl]oxy}ethanamine hydrochloride] gave a melting point of 212 to 213 °C. In addition, the “reduction of the CPX MIC” value in data set [7] came out at 4 fold. The “compound concentration reducing the CPX MIC by 4-fold” value in data set [2] amounted to 6.25 µg/mL.
The corresponding values for `CCCOc1ccc(-c2cc(OCCN3CCCCC3)c3ccccc3n2)nc1` [Compound 30b, 4–(2-Piperidin-1-ylethoxy)-2–(5-propoxypyridin-2-yl)quinoline] are 90 to 91 °C, 4 fold and 12.5 µg/mL.
With `CCCOc1ccc(-c2cc(OCCN(CC)CC)c3ccccc3n2)cn1.Cl` [Compound 31a, N,N-diethyl-2-{[2–(6-propoxypyridin-3-yl)quinolin-4-yl]oxy}ethanamine hydrochloride], the melting point lay in the range of 188 to 190 °C. For the same molecule, the “synergistic effect / EPI activity with CPX” value in data set [7] is recorded as “lost EPI activity”.
In the case of `CCCOc1ccc(-c2cc(OCCN3CCCCC3)c3ccccc3n2)cn1.Cl` [Compound 31b, 4–(2-Piperidin-1-ylethoxy)-2–(6-propoxypyridin-3-yl)quinoline hydrochloride], the melting point lay within 223 to 224 °C. In data set [7], the “synergistic effect / EPI activity with CPX” value was “lost EPI activity”.
The like results for `CCN(CC)CCOc1cc(-c2ccccn2)nc2ccccc12.Cl` [Compound 32a, N,N-diethyl-2-[(2-pyridin-2-ylquinolin-4-yl)oxy]ethanamine hydrochloride] were, in that order, 173 to 174 °C and “lost EPI activity”.
`c1ccc(-c2cc(OCCN3CCCCC3)c3ccccc3n2)nc1` [Compound 32b, 4–(2-Piperidin-1-ylethoxy)-2-pyridin-2-ylquinoline] showed a melting point of 77 to 79.5 °C. Also, in data set [7], the “synergistic effect / EPI activity with CPX” value was “lost EPI activity”.
The like results for `CCN(CC)CCOc1cc(-c2cccnc2)nc2ccccc12.Cl` [Compound 33a, N,N-diethyl-2-[(2-pyridin-3-ylquinolin-4-yl)oxy]ethanamine hydrochloride] were, in that order, 181 to 182 °C and “lost EPI activity”.
The like results for `c1cncc(-c2cc(OCCN3CCCCC3)c3ccccc3n2)c1` [Compound 33b, 4–(2-Piperidin-1-ylethoxy)-2-pyridin-3-ylquinoline] were, in that order, 101.5 to 102.5 °C and “lost EPI activity”.
The like results for `CCN(CC)CCOc1cc(-c2ccncc2)nc2ccccc12` [Compound 34a, N,N-diethyl-2-[(2-pyridin-4-ylquinolin-4-yl)oxy]ethanamine] were, in that order, 73.5 to 74 °C and “lost EPI activity”.
In turn, `Cl.c1ccc2c(OCCN3CCCCC3)cc(-c3ccncc3)nc2c1` [Compound 34b, 4–(2-Piperidin-1-ylethoxy)-2-pyridin-4-ylquinoline hydrochloride] registered a melting point of 183.5 to 185 °C. For the same molecule, in data set [7], the “synergistic effect / EPI activity with CPX” value is given as “lost EPI activity”.
In turn, `Cl.c1csc(-c2cc(OCCN3CCCCC3)c3ccccc3n2)c1` [Compound 35b, 4–(2-piperidin-1-ylethoxy)-2–(2-thienyl)quinoline hydrochloride] showed a melting point of 208 to 209.5 °C. Also, in data set [7], the “reduction of the CPX MIC” value was found to be 4 fold. In addition, in data set [2], the “synergistic effect with CPX” value was “did not retain any synergistic effect”.
The corresponding values for `c1ccc2c(OCCN3CCCCC3)cc(-c3ccsc3)nc2c1` [Compound 36b, 4–(2-Piperidin-1-ylethoxy)-2–(3-thienyl)quinoline] are 109.5 to 111 °C, 4 fold and “did not retain any synergistic effect”.
